These substances were tested on 482 bp of human β-globin (assay: PCR amplification of 482 bp of human β-globin with dUTP in place of dTTP). Conditions: 100% dUTP instead of dTTP (FIGS. 5 to 8).
Assay type: biochemical
Parameters: key to Results of PCR in the presence of dUTP 481 bp: A: Amplified; B: Amplified (faint band); C: Not amplified
Experimental: 482 bp of human β-globin was amplified to compare the amplification difference between the case of using dTTP and the case of using dUTP in PCR, and the sensitivity to dUTP was examined. For amplification, each enzyme was used after being mixed with 1 μg of a KOD antibody per U of the enzyme. For PCR, components included in KOD-Plus-Ver. 2 (produced by Toyobo Co. Ltd.) were used. General dNTPs (dATP, dTTP, dCTP, dGTP) in an amount of 0.2 mM were added to 50 μl of individual reaction solutions, and dNTPs (dATP, dUTP, dCTP, dGTP) in an amount of 0.2 mM in which dTTP was replaced by dUTP were added to 50 μl of individual reaction solutions. The reaction solutions contained 1× PCR buffer, 1.5 mM MgSO4, primers represented by SEQ ID NOs: 27 and 28 in an amount of 15 pmol for amplifying […], 10 ng of human genomic DNA (produced by Roche), and 1 U of each respective enzyme mixed with the antibody. PCR was performed using a GeneAmp PCR system 9700 (produced by Applied Biosystems) on the following schedule: preliminary reaction at 94° C. for 2 minutes, followed by 35 cycles, each cycle consisting of 98° C. for 10 seconds and 68° C. for 1 minute. After the completion of each individual reaction, each of the resulting reaction solutions was analyzed using to a DNA-1000 kit for MultiNA (produced by Shimadzu Corporation) to confirm amplified DNA fragments. FIGS. 5 and 6 show the results.

Row | Substance | PCR amplification of 482 bp with dUTP
1 | KOD Y7A/P36R: modified KOD DNA polymerase with Y7A and P36R | allowed for PCR amplification

Same assay, conditions: dTTP replaced by dUTP, 35 cycles

Row | Substance | Results of PCR in the presence of dUTP 481 bp
2 | KOD D141A/E143A/P36H: KOD D141A/E143A (exo(−)) mutant with P36H | A
3 | KOD D141A/E143A/P36R: KOD D141A/E143A (exo(−)) mutant with P36R | A
4 | KOD D141A/E143A/V93K: KOD D141A/E143A (exo(−)) mutant with V93K | A
5 | KOD D141A/E143A/Y7A/P36H: KOD D141A/E143A (exo(−)) mutant with Y7A and P36H | A
6 | KOD D141A/E143A/Y7A/P36R: KOD D141A/E143A (exo(−)) mutant with Y7A and P36R | A
7 | KOD D141A/E143A/Y7A/V93K: KOD D141A/E143A (exo(−)) mutant with Y7A and V93K | A
8 | KOD D141A/E143A/Y7A: KOD D141A/E143A (exo(−)) mutant with Y7A | C
9 | KOD H147E/P36H/V93K: KOD H147E (exo(+)) mutant with P36H and V93K | A
10 | KOD H147E/P36H: KOD H147E (exo(+)) mutant with P36H | A
11 | KOD H147E/P36R/V93K: KOD H147E (exo(+)) mutant with P36R and V93K | C
12 | KOD H147E/P36R: KOD H147E (exo(+)) mutant with P36R | A
13 | KOD H147E/P115Δ: KOD H147E (exo(+)) mutant lacking P115 | C
14 | KOD H147E/V93K: KOD H147E (exo(+)) mutant with V93K | A
15 | KOD H147E/V93Q: KOD H147E (exo(+)) mutant with V93Q | A
16 | KOD H147E/V93R: KOD H147E (exo(+)) mutant with V93R | A
17 | KOD H147E/Y7A/P36H: KOD H147E (exo(+)) mutant with Y7A and P36H | A
18 | KOD H147E/Y7A/P36R: KOD H147E (exo(+)) mutant with Y7A and P36R | A
19 | KOD H147E/Y7A/P115Δ: KOD H147E (exo(+)) mutant with Y7A and lacking P115 | C
20 | KOD H147E/Y7A/V93K: KOD H147E (exo(+)) mutant with Y7A and V93K | A
21 | KOD H147E/Y7A: KOD H147E (exo(+)) mutant with Y7A | C
22 | KOD I142R/P36H: KOD I142R (exo(−)) mutant with P36H | A

Row | Substance | Results of PCR in the presence of dUTP 481 bp
23 | KOD I142R/P36R: KOD I142R (exo(−)) mutant with P36R | A
24 | KOD I142R/V93K: KOD I142R (exo(−)) mutant with V93K | A
25 | KOD I142R/Y7A/P36H: KOD I142R (exo(−)) mutant with Y7A and P36H | A
26 | KOD I142R/Y7A/P36R: KOD I142R (exo(−)) mutant with Y7A and P36R | A
27 | KOD I142R/Y7A/V93K: KOD I142R (exo(−)) mutant with Y7A and V93K | A
28 | KOD I142R/Y7A: KOD I142R (exo(−)) mutant with Y7A | C
29 | KOD N210D/P36H: KOD N210D (exo(−)) mutant with P36H | A
30 | KOD N210D/P36R: KOD N210D (exo(−)) mutant with P36R | A
31 | KOD N210D/P115Δ: KOD N210D (exo(−)) mutant lacking P115 | C
32 | KOD N210D/V93K: KOD N210D (exo(−)) mutant with V93K | A
33 | KOD N210D/V93Q: KOD N210D (exo(−)) mutant with V93Q | A
34 | KOD N210D/V93R: KOD N210D (exo(−)) mutant with V93R | A
35 | KOD N210D/Y7A/P36R: KOD N210D (exo(−)) mutant with Y7A and P36R | A
36 | KOD N210D/Y7A/P115Δ: KOD N210D (exo(−)) mutant with Y7A and lacking P115 | C
37 | KOD N210D/Y7A/V93K: KOD N210D (exo(−)) mutant with Y7A and V93K | A
38 | KOD N210D/Y7A: KOD N210D (exo(−)) mutant with Y7A | C
39 | KOD P36R/V93K: modified KOD DNA polymerase with P36R and V93K | C
40 | KOD P115Δ: modified KOD DNA polymerase lacking P115 | C
41 | KOD Y7A/P36R: modified KOD DNA polymerase with Y7A and P36R | A
42 | KOD Y7A/P115Δ: modified KOD DNA polymerase with Y7A and lacking P115 | C
